{"source": "patent US12637418B2", "about": "“Heterocyclic compounds as antagonist of NMDA” (TAKEDA PHARMACEUTICAL COMPANY LIMITED, priority 2019, dated 2026)", "key": {"[1]": {"target": "NMDA receptor composed of four subunits including 2 sets of heterodimers of NR1 and NR2B (human GRIN1 and GRIN2B expressed in HEK293 cell) (Homo sapiens, UniProt Q13224)", "sequence (Q13224 27-1484, other chains not shown)": "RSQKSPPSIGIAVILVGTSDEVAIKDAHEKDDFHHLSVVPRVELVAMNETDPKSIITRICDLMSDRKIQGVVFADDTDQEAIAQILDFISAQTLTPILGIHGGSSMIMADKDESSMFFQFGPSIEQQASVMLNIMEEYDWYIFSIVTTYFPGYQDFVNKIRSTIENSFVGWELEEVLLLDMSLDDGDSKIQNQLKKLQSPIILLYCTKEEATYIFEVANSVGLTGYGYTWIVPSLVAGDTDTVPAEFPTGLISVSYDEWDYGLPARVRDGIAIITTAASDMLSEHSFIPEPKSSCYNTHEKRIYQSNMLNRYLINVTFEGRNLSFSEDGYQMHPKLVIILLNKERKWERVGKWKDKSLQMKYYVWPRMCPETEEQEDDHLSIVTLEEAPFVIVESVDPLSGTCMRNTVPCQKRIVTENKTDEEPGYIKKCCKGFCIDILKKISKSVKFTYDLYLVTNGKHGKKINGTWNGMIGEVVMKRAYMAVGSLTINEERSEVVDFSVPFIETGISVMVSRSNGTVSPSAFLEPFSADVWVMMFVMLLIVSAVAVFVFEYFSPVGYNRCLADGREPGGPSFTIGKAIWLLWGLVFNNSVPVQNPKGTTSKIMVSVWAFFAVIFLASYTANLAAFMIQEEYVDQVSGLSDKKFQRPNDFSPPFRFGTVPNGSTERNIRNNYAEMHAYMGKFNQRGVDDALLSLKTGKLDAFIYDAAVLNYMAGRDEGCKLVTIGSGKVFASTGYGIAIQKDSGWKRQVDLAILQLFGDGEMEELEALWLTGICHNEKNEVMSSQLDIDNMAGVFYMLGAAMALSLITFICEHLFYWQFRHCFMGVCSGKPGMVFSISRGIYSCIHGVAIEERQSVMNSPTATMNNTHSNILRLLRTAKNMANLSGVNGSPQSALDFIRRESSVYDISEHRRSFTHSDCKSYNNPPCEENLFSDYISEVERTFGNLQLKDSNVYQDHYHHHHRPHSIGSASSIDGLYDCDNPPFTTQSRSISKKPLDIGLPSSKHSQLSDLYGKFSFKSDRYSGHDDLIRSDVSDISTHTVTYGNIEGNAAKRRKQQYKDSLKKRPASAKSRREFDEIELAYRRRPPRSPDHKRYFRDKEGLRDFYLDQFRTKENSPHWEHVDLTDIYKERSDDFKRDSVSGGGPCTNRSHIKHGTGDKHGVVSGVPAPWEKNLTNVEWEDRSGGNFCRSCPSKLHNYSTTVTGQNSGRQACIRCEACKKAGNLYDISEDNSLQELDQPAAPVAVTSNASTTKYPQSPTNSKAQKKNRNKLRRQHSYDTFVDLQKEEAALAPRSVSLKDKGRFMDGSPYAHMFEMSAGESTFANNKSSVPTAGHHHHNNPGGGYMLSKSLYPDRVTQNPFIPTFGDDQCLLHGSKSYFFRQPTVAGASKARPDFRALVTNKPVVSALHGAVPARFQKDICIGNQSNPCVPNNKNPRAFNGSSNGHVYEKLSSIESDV", "test": "NR2B Ca^2+ influx assay", "assay_type": "cell-based", "settings": "10 μM final compound concentration; 30 μM glutamic acid and 30 μM glycine; HEK293 cells expressing GRIN1 and GRIN2B; Fluo-4 fluorescence; read-out: inhibitory rate (10 μM compound concentration)", "description": "To confirm the “antagonistic action on an NMDA receptor containing the NR2B subunit” of the compound of the present invention, human embryonic kidney cell expressing the “NMDA receptor composed of four subunits including 2 sets of heterodimers of NR1 and NR2B”, specifically HEK293 cell expressing human glutamate ionotropic receptor NMDA type subunit 1 (GRIN1) and human glutamate ionotropic receptor NMDA type subunit 2B (GRIN2B), was used and the activation suppressive effect on the receptors was measured.\nHEK293 cells that express GRIN1 and GRIN2B were purchased from ChanTest (Human NMDA (NR1/NR2B) Receptor-expressing, stable replicating cell line (HEK293) catalog No. CT6121).\nAs an index of the NMDA receptor activation, intracellular calcium ion (Ca^2+) influx caused by the binding of glycine and glutamic acid with NR1 and NR2B, respectively, was used.\nHEK293 cells that express GRIN1 and GRIN2B were cultured in DMEM/F-12 (COSMO BIO, 10-092-CM) medium added with 10% FBS (fetal bovine serum, AusGene), 100 units/mL penicillin, 100 μg/mL streptomycin, 500 μg/mL neomycin, 100 μg/mL Zeocin (registered trade mark, Invitrogen), 5 μg/mL Blasticidin in a cell culture flask in an incubator (under 37° C., 5% CO2).\nThe cells were detached from the flask with trypsin the day before the assay, suspended in a seeding medium (DMEM (Invitrogen, 31053) added with 10% FBS, 100 units/mL penicillin, 100 μg/mL streptomycin) at 8×10^5 cells/mL, seeded by 25 μL per well in a 384-well plate (Falcon, 356663) at 20000 cells/well, and cultured overnight in an incubator. On the day of the assay, tetracycline (Wako Pure Chemical Industries, Ltd., 209-16561) was diluted with the seeding medium at 2 μg/mL, added at 25 μL/well to the plate seeded with the cells, and cultured for 2 hr in an incubator. Thereafter, the medium was removed, and the cells were washed with 50 μL/well assay buffer (137 mM NaCl, 4 mM KCl, 1.8 mM CaCl2, 10 mM HEPES (pH 7.2), 10 mM Glucose, 0.1% BSA). Then, a loading buffer (assay buffer added with 2.5 μM Fluo-4AM, 2 mM Amaranth, 1 mM Tartrazine) was added at 25 μL/well, and the cells were incubated in the incubator for 30 min, and at room temperature for 15 min. A solution of the Example compound diluted with the above-mentioned assay buffer at 30 μM (final concentration 10 μM) was added at 25 μL/well, and the cells were left standing for 15 min at room temperature. Using FDSS7000EX/μCELL (Hamamatsu Photonics K.K.), an assay buffer containing 30 μM glutamic acid and 30 μM glycine was added at 25 μL/well, and fluorescence signals with wavelengths of Excitation 480 nm and Emission 540 nm were measured every 3 seconds for 5 min. The inhibitory activity was calculated as a relative activity value (inhibitory rate) that inhibits 100% of the cumulative value of the fluorescence value of a well added with an assay buffer free of glutamic acid, glycine, relative to the cumulative value of the fluorescence value of each well."}, "[2]": {"system": "NMDA receptor containing NR2B subunit (NMDA receptor expressed in the hippocampus tissue)", "test": "In vivo [^3H]MK-801 binding test", "set-up": "species or system Sprague Dawley rats", "settings": "[^3H]MK-801 binding inhibitory rate, rat hippocampus, vehicle 100%, MK-801 maleate 0%", "method": "In Vivo [^3H]MK-801 Binding Test\nTo confirm the “functionally antagonistic action in vivo for NMDA receptor containing NR2B subunit” that the compound of the present invention has, a binding test was performed using a tritium-labeled form of MK-801 ((5R,10S)-5-methyl-10,11-dihydro-5H-5,10-epiminodibenzo[a,d][7]annulene) ([^3H]MK-801) which is a compound that binds to the gate of the NMDA receptor.\nAn Example compound (1 mg/kg/2 mL, 0.5% MC water) or vehicle ([…], 0.5% MC water) was orally administered (p.o.) to Sprague Dawley rats (body weight 180-260 g). After a certain period of time (near the time when the maximum blood concentration was reached), [^3H]MK-801 (20 μCi/kg/mL, Muromachi Kikai Co., Ltd.) was intravenously administered from the tail vein. […] 10 mL of liquid scintillator A (Fujifilm Wako Pure Chemical Corporation) was added, and the residual radioactivity was measured by a liquid scintillation counter (ALOKA LSC-6100). The residual radioactivity of 100 μL of the homogenate before filtration through the glass filter was also measured in the same manner. By calculating [residual radioactivity in filter/residual radioactivity in 100 μL of homogenate], correction by the dose of [^3H]MK-801 was performed, and the value was used as a binding ratio of [^3H]MK-801 in the NMDA receptor expressed in the hippocampus tissue of each individual. […]"}, "[3]": {"settings": "in vivo; cited from earlier work"}, "[4]": {"settings": "continuous intravenous administration; cited from earlier work"}, "[5]": {"settings": "rodents; cited from earlier work"}, "[6]": {"settings": "in vivo; cited from earlier work", "remark": "listed apart in the source"}, "[7]": {"settings": "intravenous single administration; cited from earlier work"}}}
{"smiles": "COc1ccc(C#N)c(F)c1CNC(=O)c1cnc(OC(F)F)c(F)c1", "note": "[Example 17, N-[(3-cyano-2-fluoro-6-methoxyphenyl)methyl]-6-(difluoromethoxy)-5-fluoropyridine-3-carboxamide]", "values": [{"measurement": "inhibition at 10 µM", "setting": "[1]", "result": 96, "unit": "%"}, {"measurement": "inhibitory rate (1 mg/kg, p.o.)", "setting": "[2]", "result": 17, "unit": "%"}]}
{"smiles": "CC(C(O)c1ccc(O)cc1)N1CCC(Cc2ccccc2)CC1", "note": "(stereo not drawn) [Ifenprodil]", "values": [{"measurement": "pain sense threshold", "setting": "[3]", "result": "the pain sense threshold increases"}]}
{"smiles": "C[C@@H]([C@@H](O)c1ccc(O)cc1)N1CCC(O)(c2ccccc2)CC1", "note": "[CP-101, 606]", "values": [{"measurement": "treatment resistant-depression symptom", "setting": "[4]", "result": "significantly improves treatment resistant-depression symptom"}, {"measurement": "number of occurrence and depth of cortical spreading depression", "setting": "[5]", "result": "suppress the number of occurrence and the depth of cortical spreading depression"}]}
{"smiles": "CC12CC3CC(C)(C1)CC(N)(C3)C2", "note": "[memantine]", "values": [{"measurement": "peripheral symptoms of dementia", "setting": "[6]", "result": "partially improves peripheral symptoms of dementia"}]}
{"smiles": "COc1ncc(C#N)cc1CNC(=O)c1cnc(OC(F)F)c(F)c1", "note": "[Example 9, N-[(5-cyano-2-methoxypyridin-3-yl)methyl]-6-(difluoromethoxy)-5-fluoropyridine-3-carboxamide]", "values": [{"measurement": "inhibition at 10 µM", "setting": "[1]", "result": 94, "unit": "%"}, {"measurement": "inhibitory rate (1 mg/kg, p.o.)", "setting": "[2]", "result": 10, "unit": "%"}]}
{"smiles": "CNC1(c2ccccc2Cl)CCCCC1=O", "note": "(stereo not drawn) [ketamine]", "values": [{"measurement": "depression symptoms accompanying major depression and bipolar disorder", "setting": "[7]", "result": "improves depression symptoms accompanying major depression and bipolar disorder rapidly and in a sustained manner"}]}
